From patent US10143642B2, “Sunscreen molecule and compositions thereof” (Conopco, Inc., priority 2013, dated 2018)

Assay: Stability of sunscreen actives on HPTLC plates exposed to UV radiation (densitometry)
Format: physicochemical
Conditions: HPTLC plate, densitometry scan at 357 nm; for % active, 0 hr: UV radiation 5.5 mW/cm^2, 0 hr exposure; for % active, 1 hr: UV radiation 5.5 mW/cm^2, 1 hr exposure; for % active, 2 hr: UV radiation 5.5 mW/cm^2, 2 hr exposure
Procedure: Sunscreen actives singly or as combinations as shown in Table-1 were checked for stability using the following procedure:
The method was based on spotting the HPTLC plates (in duplicate) with the sunscreen molecules of interest along with potential quencher molecules or formulations. The plate is then exposed to UV radiation (intensity 5.5 mW/cm^2) for 120 minutes. Following this the chromatographic separation was carried out using appropriate solvent system. Densitometry analysis is done to determine the amount of sunscreen degraded. Stock solutions were prepared in methanol following the ratios as mentioned in the following table. 14 μL of stock solutions were loaded (3 mm width; 16 mm separation) on a 10×10 cm F254 HPTLC plate, using CAMAG LINOMAT 5 applicator equipped with a 100 μL micro-syringe (Hamilton, Switzerland). Ascending chromatography was performed at a distance of 85 mm in a TLC chamber using n-hexane-ethyl acetate 9:1 (v/v) as the mobile phase (˜10 mL). The plates were dried at room temperature and subjected to ultraviolet absorption densitometry scan. The concentration dependent fluorescent bands due to presence of sunscreens were detected with a linear scan at 357 nm, using Camag TLC Scanner 3, in the presence of deuterium source. Slit width of 8×0.4 mm and scanning rate of 20 mm s^−1 were maintained during each densitometry scan. Concentrations of Parsol 1789 & the compound of present invention on each lane were determined from densitogram peak areas; prior and after the sun exposure using Win CATS Planar chromatography manager software.

Row | Compound | % active, 0 hr | % active, 1 hr | % active, 2 hr
1 | COc1ccc(/C(O)=C/C(=O)c2ccc(C(C)(C)C)cc2)cc1 [Example 1, Parsol 1789] | 100% | 28% | 5%
2 | COC(=O)CCC(C)C1CCC2C3C(OC(=O)COc4ccc(C(=O)/C=C(\O)c5ccc(C(C)(C)C)cc5)cc4)C[C@@H]4CC(OC(=O)C(C#N)=C(c5ccccc5)c5ccccc5)CCC4(C)C3CCC12C (stereo partly drawn) [Example 5, UVB & UVA modified methyl ester of chenodeoxy cholic acid] | 100% | 93% | 86%
